pIC50: −log10 of the molar value.
These molecules were tested against IDH1 R132H (Homo sapiens (Human), UniProt O75874, R132H) (assay: In vitro assay for IDH1m (R132H) inhibitors, NADPH depletion with resazurin/resorufin detection). Settings: IDH1 R132H enzyme, 50 minutes at room temperature; read-out: IDH R132H IC50.
Assay type: biochemical
Method: Assays were conducted in a volume of 76 μl assay buffer (150 mM NaCl, 10 mM MgCl2, 20 mM Tris pH 7.5, 0.03% bovine serum albumin) as follows in a standard 384-well plate: To 25 ul of substrate mix (8 uM NADPH, 2 mM aKG), 1 μl of test compound was added in DMSO. The plate was centrifuged briefly, and then 25 μl of enzyme mix was added (0.2 μg/ml IDH1 R132H) followed by a brief centrifugation and shake at 100 RPM. The reaction was incubated for 50 minutes at room temperature, then 25 μl of detection mix (30 μM resazurin, […]) was added and the mixture further incubated for 5 minutes at room temperature. The conversion of resazurin to resorufin was detected by fluorescent spectroscopy at Ex544 Em590 c/o 590.
Representative compounds of formula (I) set forth in Tables 1 and 2 were tested in this assay and the results are set forth below in Table 4.

Sequence of IDH1 R132H (O75874 whole entry R132H): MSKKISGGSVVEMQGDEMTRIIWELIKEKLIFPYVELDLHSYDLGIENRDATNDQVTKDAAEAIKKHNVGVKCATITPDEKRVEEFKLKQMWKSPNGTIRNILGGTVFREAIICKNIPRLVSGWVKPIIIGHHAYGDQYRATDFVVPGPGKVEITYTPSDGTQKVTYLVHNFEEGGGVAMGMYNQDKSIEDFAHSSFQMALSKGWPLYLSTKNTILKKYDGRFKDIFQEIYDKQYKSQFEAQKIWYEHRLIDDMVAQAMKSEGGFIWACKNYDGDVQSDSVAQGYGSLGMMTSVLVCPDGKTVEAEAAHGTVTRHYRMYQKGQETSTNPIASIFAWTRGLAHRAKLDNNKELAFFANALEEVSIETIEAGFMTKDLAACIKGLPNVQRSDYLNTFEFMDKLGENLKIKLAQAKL

pIC50, 5.00 to 6.00:
Cc1ccc(NC(=O)Nc2ccc(F)c(Cl)c2)cc1S(=O)(=O)Nc1ccc(Cl)cc1 [Compound 228]
Cc1ccc(NC(=O)Nc2ccc(F)cc2F)cc1S(=O)(=O)Nc1ccc(Cl)cc1 [Compound 229]
Cc1ccc(NC(=O)Nc2ccc(F)c(F)c2)cc1S(=O)(=O)Nc1ccc(Cl)cc1 [Compound 230]
Cc1ccc(NC(=O)Nc2ccc(C(F)(F)F)cc2Cl)cc1S(=O)(=O)Nc1ccc(Cl)cc1 [Compound 231]
Cc1ccc(NC(=O)Nc2ccc(Br)cc2OC(F)(F)F)cc1S(=O)(=O)Nc1ccc(Cl)cc1 [Compound 232]
Cc1ccc(NC(=O)Nc2cc(C(F)(F)F)ccc2F)cc1S(=O)(=O)Nc1ccc(Cl)cc1 [Compound 233]
Cc1ccc(NC(=O)Nc2c(C)cccc2Cl)cc1S(=O)(=O)Nc1ccc(Cl)cc1 [Compound 234]
Cc1ccc(NC(=O)Nc2ccc(C)c(S(=O)(=O)Nc3ccc(Cl)cc3)c2)cc1Cl [Compound 235]
Cc1cc(Cl)ccc1NC(=O)Nc1ccc(C)c(S(=O)(=O)Nc2ccc(Cl)cc2)c1 [Compound 236]
Cc1cc(NC(=O)Nc2ccc(C)c(S(=O)(=O)Nc3ccc(Cl)cc3)c2)ccc1Br [Compound 237]
Cc1cc(Br)ccc1NC(=O)Nc1ccc(C)c(S(=O)(=O)Nc2ccc(Cl)cc2)c1 [Compound 238]
Cc1ccc(NC(=O)Nc2c(C)cc(Br)cc2C)cc1S(=O)(=O)Nc1ccc(Cl)cc1 [Compound 239]
Cc1ccc(F)c(NC(=O)Nc2ccc(C)c(S(=O)(=O)Nc3ccc(Cl)cc3)c2)c1 [Compound 240]
Cc1ccc(F)cc1NC(=O)Nc1ccc(C)c(S(=O)(=O)Nc2ccc(Cl)cc2)c1 [Compound 241]
Cc1ccc(NC(=O)Nc2ccc(Cl)c([N+](=O)[O-])c2)cc1S(=O)(=O)Nc1ccc(Cl)cc1 [Compound 242]
Cc1ccc(NC(=O)Nc2cc(Cl)ccc2[N+](=O)[O-])cc1S(=O)(=O)Nc1ccc(Cl)cc1 [Compound 243]
Cc1ccc(NC(=O)Nc2ccc([N+](=O)[O-])cc2Cl)cc1S(=O)(=O)Nc1ccc(Cl)cc1 [Compound 244]
Cc1ccc(NC(=O)Nc2ccc(F)cc2[N+](=O)[O-])cc1S(=O)(=O)Nc1ccc(Cl)cc1 [Compound 245]
Cc1ccc(NC(=O)Nc2cc(Cl)c(Cl)cc2Cl)cc1S(=O)(=O)Nc1ccc(Cl)cc1 [Compound 246]
Cc1ccc(NC(=O)Nc2c(Cl)cc(F)cc2Br)cc1S(=O)(=O)Nc1ccc(Cl)cc1 [Compound 247]
Cc1ccc(NC(=O)Nc2ccc(F)c(F)c2F)cc1S(=O)(=O)Nc1ccc(Cl)cc1 [Compound 248]
Cc1cccc(NC(=O)Nc2ccc(C)c(S(=O)(=O)Nc3ccc(Cl)cc3)c2)c1 [Compound 249]
CCc1ccccc1NC(=O)Nc1ccc(C)c(S(=O)(=O)Nc2ccc(Cl)cc2)c1 [Compound 250]
CCc1cccc(NC(=O)Nc2ccc(C)c(S(=O)(=O)Nc3ccc(Cl)cc3)c2)c1 [Compound 251]
CCc1ccc(NC(=O)Nc2ccc(C)c(S(=O)(=O)Nc3ccc(Cl)cc3)c2)cc1 [Compound 252]
CCCCc1ccc(NC(=O)Nc2ccc(C)c(S(=O)(=O)Nc3ccc(Cl)cc3)c2)cc1 [Compound 253]
Cc1ccc(NC(=O)Nc2ccc(C(C)C)cc2)cc1S(=O)(=O)Nc1ccc(Cl)cc1 [Compound 254]
Cc1ccc(NC(=O)Nc2ccccc2C(C)(C)C)cc1S(=O)(=O)Nc1ccc(Cl)cc1 [Compound 255]
Cc1ccc(NC(=O)Nc2ccc(C(C)(C)C)cc2)cc1S(=O)(=O)Nc1ccc(Cl)cc1 [Compound 256]
Cc1ccc(NC(=O)Nc2c(C)cccc2C)cc1S(=O)(=O)Nc1ccc(Cl)cc1 [Compound 257]
Cc1ccc(NC(=O)Nc2cccc(C)c2C)cc1S(=O)(=O)Nc1ccc(Cl)cc1 [Compound 258]
Cc1ccc(NC(=O)Nc2ccc(C)c(S(=O)(=O)Nc3ccc(Cl)cc3)c2)cc1C [Compound 259]
Cc1cc(C)cc(NC(=O)Nc2ccc(C)c(S(=O)(=O)Nc3ccc(Cl)cc3)c2)c1 [Compound 260]
CCc1cccc(CC)c1NC(=O)Nc1ccc(C)c(S(=O)(=O)Nc2ccc(Cl)cc2)c1 [Compound 261]
Cc1cc([N+](=O)[O-])ccc1NC(=O)Nc1ccc(C)c(S(=O)(=O)Nc2ccc(Cl)cc2)c1 [Compound 262]
Cc1ccc(NC(=O)Nc2ccc(C)c(S(=O)(=O)Nc3ccc(Cl)cc3)c2)cc1[N+](=O)[O-] [Compound 263]
Cc1ccc(NC(=O)Nc2cccc([N+](=O)[O-])c2C)cc1S(=O)(=O)Nc1ccc(Cl)cc1 [Compound 264]
COc1ccccc1NC(=O)Nc1ccc(C)c(S(=O)(=O)Nc2ccc(Cl)cc2)c1 [Compound 265]
COc1cccc(NC(=O)Nc2ccc(C)c(S(=O)(=O)Nc3ccc(Cl)cc3)c2)c1 [Compound 266]
COc1ccc(NC(=O)Nc2ccc(C)c(S(=O)(=O)Nc3ccc(Cl)cc3)c2)cc1 [Compound 267]
COc1ccc(OC)c(NC(=O)Nc2ccc(C)c(S(=O)(=O)Nc3ccc(Cl)cc3)c2)c1 [Compound 268]
COc1cc(NC(=O)Nc2ccc(C)c(S(=O)(=O)Nc3ccc(Cl)cc3)c2)cc(OC)c1 [Compound 269]
COc1ccc(Cl)cc1NC(=O)Nc1ccc(C)c(S(=O)(=O)Nc2ccc(Cl)cc2)c1 [Compound 270]
COc1cc(OC)c(NC(=O)Nc2ccc(C)c(S(=O)(=O)Nc3ccc(Cl)cc3)c2)cc1Cl [Compound 271]
COc1cc([N+](=O)[O-])ccc1NC(=O)Nc1ccc(C)c(S(=O)(=O)Nc2ccc(Cl)cc2)c1 [Compound 272]
CSc1cccc(NC(=O)Nc2ccc(C)c(S(=O)(=O)Nc3ccc(Cl)cc3)c2)c1 [Compound 273]
CSc1ccc(NC(=O)Nc2ccc(C)c(S(=O)(=O)Nc3ccc(Cl)cc3)c2)cc1 [Compound 274]
Cc1ccc(NC(=O)Nc2cccc([N+](=O)[O-])c2)cc1S(=O)(=O)Nc1ccc(Cl)cc1 [Compound 275]
COC(=O)c1cccc(NC(=O)Nc2ccc(C)c(S(=O)(=O)Nc3ccc(Cl)cc3)c2)c1 [Compound 276]
Cc1ccc(NC(=O)NCc2ccc(Br)cc2)cc1S(=O)(=O)Nc1ccc(Cl)cc1 [Compound 277]
Cc1ccc(NC(=O)NCc2ccccc2F)cc1S(=O)(=O)Nc1ccc(Cl)cc1 [Compound 278]
Cc1ccc(NC(=O)NCc2cccc(F)c2)cc1S(=O)(=O)Nc1ccc(Cl)cc1 [Compound 279]
Cc1ccc(NC(=O)NCc2ccc(Cl)cc2Cl)cc1S(=O)(=O)Nc1ccc(Cl)cc1 [Compound 280]
Cc1cccc(CNC(=O)Nc2ccc(C)c(S(=O)(=O)Nc3ccc(Cl)cc3)c2)c1 [Compound 282]
Cc1ccc(CNC(=O)Nc2ccc(C)c(S(=O)(=O)Nc3ccc(Cl)cc3)c2)cc1 [Compound 283]
Cc1ccc(NC(=O)N[C@H](C)c2ccccc2)cc1S(=O)(=O)Nc1ccc(Cl)cc1 [Compound 284]
Cc1ccc(NC(=O)Nc2ccccc2Cc2ccccc2)cc1S(=O)(=O)Nc1ccc(Cl)cc1 [Compound 285]
Cc1ccc(NC(=O)NC2C[C@H]2c2ccccc2)cc1S(=O)(=O)Nc1ccc(Cl)cc1 (some centres unmarked) [Compound 286]
Cc1ccc(NC(=O)Nc2ccc3ccccc3c2)cc1S(=O)(=O)Nc1ccc(Cl)cc1 [Compound 287]
Cc1ccc(NC(=O)N[C@@H](C)c2cccc3ccccc23)cc1S(=O)(=O)Nc1ccc(Cl)cc1 [Compound 288]
Cc1ccc(NC(=O)Nc2ccsc2)cc1S(=O)(=O)Nc1ccc(Cl)cc1 [Compound 289]
Cc1ccc(NC(=O)Nc2c(-c3ccccc3)noc2C)cc1S(=O)(=O)Nc1ccc(Cl)cc1 [Compound 290]
Cc1ccc(NC(=O)Nc2ccc3c(c2)CCO3)cc1S(=O)(=O)Nc1ccc(Cl)cc1 [Compound 291]
Cc1ccc(NC(=O)Nc2ccc3c(c2)OCO3)cc1S(=O)(=O)Nc1ccc(Cl)cc1 [Compound 292]
Cc1ccc(NC(=O)Nc2cccc(C(F)(F)F)c2)cc1S(=O)(=O)Nc1ccccc1Cl [Compound 293]
